The results in this text go back to patent US11787762B2, “Tetralin and tetrahydroquinoline compounds as inhibitors of HIF-2alpha” (ARCUS BIOSCIENCES, INC., priority 2020, dated 2023).

Structures are written as SMILES. pIC50: −log10 of the molar value. Where only a bound is given, the exact number is not on record here.

This test deals with T1, HIF-2α (Homo sapiens, UniProt Q99814).
T1 construct: host or cells: 786-O cells stably transduced with Cignal Lenti HIF Luc Reporter (only the reporter was introduced, not HIF-2α)
T1 sequence (Q99814 whole entry): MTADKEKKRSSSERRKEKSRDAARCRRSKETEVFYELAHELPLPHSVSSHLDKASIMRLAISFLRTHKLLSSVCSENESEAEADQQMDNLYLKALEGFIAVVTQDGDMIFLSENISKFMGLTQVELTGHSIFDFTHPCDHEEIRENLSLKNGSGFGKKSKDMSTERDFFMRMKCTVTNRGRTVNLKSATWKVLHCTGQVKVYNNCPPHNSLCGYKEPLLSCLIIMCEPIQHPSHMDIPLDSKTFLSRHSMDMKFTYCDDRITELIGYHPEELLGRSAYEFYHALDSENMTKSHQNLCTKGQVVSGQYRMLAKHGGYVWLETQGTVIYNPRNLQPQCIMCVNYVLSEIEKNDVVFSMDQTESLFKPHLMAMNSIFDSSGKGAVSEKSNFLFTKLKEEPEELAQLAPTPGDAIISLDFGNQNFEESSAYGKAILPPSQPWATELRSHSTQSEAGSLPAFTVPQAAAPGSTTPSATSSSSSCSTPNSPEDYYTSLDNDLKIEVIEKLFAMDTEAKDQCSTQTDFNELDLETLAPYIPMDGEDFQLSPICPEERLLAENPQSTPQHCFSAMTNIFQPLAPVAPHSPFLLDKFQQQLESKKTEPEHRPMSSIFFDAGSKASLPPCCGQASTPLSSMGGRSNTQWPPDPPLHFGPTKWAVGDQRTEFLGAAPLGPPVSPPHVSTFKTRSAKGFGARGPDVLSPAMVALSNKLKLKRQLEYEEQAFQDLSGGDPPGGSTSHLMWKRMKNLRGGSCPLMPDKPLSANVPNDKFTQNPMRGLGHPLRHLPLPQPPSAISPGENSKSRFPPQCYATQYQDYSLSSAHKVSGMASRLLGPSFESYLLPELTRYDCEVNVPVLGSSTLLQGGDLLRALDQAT
The experiment in a line: HIF-2α luciferase reporter assay in HIF-Luc-786-O cells. The following applies: Table 3, 20 hours incubation. The test is classed as cell-based. As to the method: Generation of HIF-2α Luciferase 786-O Cell Line:
Stable cell lines were generated by transducing 786-O cells (ATCC, CRL-1932) with Cignal Lenti HIF Luc Reporter lentivirus (CLS-007 L, Qiagen) according to the manufacturer's guidelines. In brief, 0.3×10^6 786-0 cells were transduced with lentivirus at a Multiplicity of Infection (MOI) of 25 for 24 hours. After transduction, cells were replenished with fresh RPMI 1640 Medium (Cat. No. 11875085, Thermo Fisher,) supplemented with 10% FBS (Cat. No. A3160502, Gibco), 2 mM GlutaMax (Cat. No. 35050-061, Invitrogen) and 100 units of penicillin and 100 μg of streptomycin/mL (Cat. No 15070063, Thermo Fisher) for another 24 hours. Antibiotic selection was performed in cell media containing 4 μg/mL of Puromycin. After 7 days of antibiotic selection, stable pools of surviving cells were expanded and used in a luciferase reporter assay.
HIF-2α Luciferase Reporter Assay:
On day one, 20 uL of HIF-Luc-786-0 cells in OptiMem (Cat. No. 31985088, Thermo Fisher) were seeded into each well of a 384 well white opaque plate (Corning 3570) and incubated at 37° C. and 5% CO2. Twenty microliters of 2× test compounds in OptiMem were added to cells after 4 hours of incubation. Final assay conditions comprised 20,000 cells per well in 1% DMSO with test compound concentrations ranging from 50 uM to 0 uM. After 20 hours incubation at 37° C. and 5% CO2, luciferase activity was determined using ONE-Glo Luciferase Assay Reagent (E6110, Promega) following the manufacture's recommended procedure. Briefly, 40 uL of ONE-Glo luciferase reagents were added to each well and luciferase signals were measured using an Envision 2102 Multilabel Reader. Percentage maximum activity in each test well was calculated based on DMSO (maximum activity) and no cell control wells (baseline activity). The IC50 values of the test compounds were determined from compound dose response curves fitted using a standard four parameter fit equation.
For orientation: A reporter such as luciferase makes a cellular process visible.
Regarding `N#Cc1cc(N)ncc1-c1ccc([C@H]2CC[C@H](F)c3cc(F)cc(C#N)c32)c2c1[C@H](O)C(F)(F)C2` [Example 149, 2-amino-5-[(3S)-7-[(1R,4S)-8-cyano-4,6-difluoro-1,2,3,4-tetrahydronaphthalen-1-yl]-2,2-difluoro-3-hydroxy-1,3-dihydroinden-4-yl] pyridine-4-carbonitrile], the negative-log IC50 (pIC50) was above 7.00. Consider `Cn1cc(-c2ccc([C@H]3CC[C@H](F)c4cc(F)cc(C#N)c43)c3c2[C@H](O)C(F)(F)C3)cn1` [Example 150, (5S,8R)-8-[(1S)-2,2-difluoro-1-hydroxy-7-(1-methylpyrazol-4-yl)-1,3-dihydroinden-4-yl]-3,5-difluoro-5,6,7,8-tetrahydronaphthalene-1-carbonitrile], for which the negative logarithm of the IC50 (pIC50) was 6.00 to 7.00. `N#Cc1cc(F)cc2c1[C@@H](c1ccc(-c3cc(F)ccc3N)c3c1CC(F)(F)[C@H]3O)CC[C@@H]2F` [Example 235, (5S,8R)-8-[(1S)-7-(2-amino-5-fluorophenyl)-2,2-difluoro-1-hydroxy-1,3-dihydroinden-4-yl]-3,5-difluoro-5,6,7,8-tetrahydronaphthalene-1-carbonitrile]: the pIC50 was above 7.00. As for `N#Cc1cc(F)cc2c1[C@@H](c1ccc(-c3cnc4c(N)cccn34)c3c1CC(F)(F)[C@H]3O)CC[C@@H]2F` [Example 230, (5S,8R)-8-[(1S)-7-(8-aminoimidazo[1,2-a]pyridin-3-yl)-2,2-difluoro-1-hydroxy-1,3-dihydroinden-4-yl]-3,5-difluoro-5,6,7,8-tetrahydronaphthalene-1-carbonitrile], the pIC50 was above 7.00. On to `N#Cc1ccc(-c2c(F)cc([C@H]3CC[C@H](F)c4cc(F)cc(C#N)c43)c3c2[C@H](O)C(F)(F)C3)c(N)c1` [Example 204, (5S,8R)-8-[(1S)-7-(2-amino-4-cyanophenyl)-2,2,6-trifluoro-1-hydroxy-2,3-dihydro-1H-inden-4-yl]-3,5-difluoro-5,6,7,8-tetrahydronaphthalene-1-carbonitrile], for which the pIC50 is above 7.00.

Turning to `N#Cc1cc(F)cc2c1[C@@H](c1ccc(-c3cccc(F)c3N)c3c1CC(F)(F)[C@H]3O)CC[C@@H]2F` [Example 229, (5S,8R)-8-[(1S)-7-(2-amino-3-fluorophenyl)-2,2-difluoro-1-hydroxy-1,3-dihydroinden-4-yl]-3,5-difluoro-5,6,7,8-tetrahydronaphthalene-1-carbonitrile], the negative logarithm of the IC50 (pIC50) is above 7.00.

`N#Cc1cc(F)cc2c1[C@@H](c1ccc(-c3ccc(F)cc3N)c3c1CC(F)(F)[C@H]3O)CC[C@@H]2F` [Example 194, (5S,8R)-8-[(1S)-7-(2-amino-4-fluorophenyl)-2,2-difluoro-1-hydroxy-1,3-dihydroinden-4-yl]-3,5-difluoro-5,6,7,8-tetrahydronaphthalene-1-carbonitrile] showed a pIC50 above 7.00. Regarding `N#Cc1cc(F)cc2c1[C@@H](c1ccc(-c3cnc4ccccn34)c3c1CC(F)(F)[C@H]3O)CC[C@@H]2F` [Example 239, (5S,8R)-8-[(1S)-2,2-difluoro-1-hydroxy-7-imidazo[1,2-a]pyridin-3-yl-1,3-dihydroinden-4-yl]-3,5-difluoro-5,6,7,8-tetrahydronaphthalene-1-carbonitrile], the pIC50 is above 7.00. To `Cc1nccnc1-c1ccc([C@H]2CC[C@H](F)c3cc(F)cc(C#N)c32)c2c1[C@H](O)C(F)(F)C2` [Example 176, (5S,8R)-8-[(1S)-2,2-difluoro-1-hydroxy-7-(3-methylpyrazin-2-yl)-1,3-dihydroinden-4-yl]-3,5-difluoro-5,6,7,8-tetrahydronaphthalene-1-carbonitrile] belongs above 7.00; to `N#Cc1cc(F)cc2c1[C@@H](c1ccc(-c3ccn[nH]3)c3c1C[C@@H](F)[C@H]3O)CC[C@@H]2F` [Example 172, (5S,8R)-3,5-difluoro-8-[(1S,2R)-2-fluoro-1-hydroxy-7-(1H-pyrazol-5-yl)-2,3-dihydro-1H-inden-4-yl]-5,6,7,8-tetrahydronaphthalene-1-carbonitrile], below 6.00; to `N#Cc1cc(F)cc2c1[C@@H](c1ccc(-c3cnc4ncccn34)c3c1CC(F)(F)[C@H]3O)CC[C@@H]2F` [Example 233, (5S,8R)-8-[(1S)-2,2-difluoro-1-hydroxy-7-imidazo[1,2-a]pyrimidin-3-yl-1,3-dihydroinden-4-yl]-3,5-difluoro-5,6,7,8-tetrahydronaphthalene-1-carbonitrile], 6.00 to 7.00. With `N#Cc1cc(F)cc2c1[C@@H](c1ccc(Cl)c3c1C[C@@H](F)[C@H]3O)CC[C@@H]2F` [Example 222, (5S,8R)-8-[(1S,2R)-7-chloro-2-fluoro-1-hydroxy-2,3-dihydro-1H-inden-4-yl]-3,5-difluoro-5,6,7,8-tetrahydronaphthalene-1-carbonitrile], the pIC50 is above 7.00. Regarding `N#Cc1cc(F)cc2c1[C@@H](c1ccc(-c3cncs3)c3c1CC(F)(F)[C@H]3O)CC[C@@H]2F` [Example 158, (5S,8R)-8-[(1S)-2,2-difluoro-1-hydroxy-7-(1,3-thiazol-5-yl)-1,3-dihydroinden-4-yl]-3,5-difluoro-5,6,7,8-tetrahydronaphthalene-1-carbonitrile], the pIC50 was above 7.00. Turning to `CC(C)(O)c1ccc([C@H]2CC[C@H](F)c3cc(F)cc(C#N)c32)c2c1[C@H](O)C(F)(F)C2` [Example 226, (5S,8R)-8-[(1S)-2,2-difluoro-1-hydroxy-7-(2-hydroxypropan-2-yl)-1,3-dihydroinden-4-yl]-3,5-difluoro-5,6,7,8-tetrahydronaphthalene-1-carbonitrile], the negative-log IC50 (pIC50) was above 7.00.

The compound `Cc1ccccc1-c1ccc([C@H]2CC[C@H](F)c3cc(F)cc(C#N)c32)c2c1[C@H](O)C(F)(F)C2` [Example 144, (5S,8R)-8-[(1S)-2,2-difluoro-1-hydroxy-7-(2-methylphenyl)-2,3-dihydro-1H-inden-4-yl]-3,5-difluoro-5,6,7,8-tetrahydronaphthalene-1-carbonitrile] gave a negative logarithm of the IC50 (pIC50) above 7.00. The compound `Cn1cc(-c2ccc([C@H]3CC[C@H](F)c4cc(F)cc(C#N)c43)c3c2[C@H](O)C(F)(F)C3)nn1` [Example 146, (5S,8R)-8-[(1S)-2,2-difluoro-1-hydroxy-7-(1-methyl-1H-1,2,3-triazol-4-yl)-2,3-dihydro-1H-inden-4-yl]-3,5-difluoro-5,6,7,8-tetrahydronaphthalene-1-carbonitrile] gave a pIC50 above 7.00. In turn, `N#Cc1cc(F)cc2c1[C@@H](c1ccc(C#N)c3c1CC(F)(F)[C@H]3O)CC[C@@H]2F` [Example 201, (5S,8R)-8-[(1S)-7-cyano-2,2-difluoro-1-hydroxy-1,3-dihydroinden-4-yl]-3,5-difluoro-5,6,7,8-tetrahydronaphthalene-1-carbonitrile] showed a pIC50 above 7.00. Compound `Cc1nc(C#N)ncc1-c1c(F)cc([C@H]2CC[C@H](F)c3cc(F)cc(C#N)c32)c2c1[C@H](O)C(F)(F)C2` [Example 206, 5-[(3S)-7-[(1R,4S)-8-cyano-4,6-difluoro-1,2,3,4-tetrahydronaphthalen-1-yl]-2,2,5-trifluoro-3-hydroxy-2,3-dihydro-1H-inden-4-yl]-4-methylpyrimidine-2-carbonitrile] showed a negative logarithm of the IC50 (pIC50) above 7.00.

`Cc1nc(C#N)ncc1-c1ccc([C@H]2C[C@H](F)[C@H](F)c3cc(F)cc(C#N)c32)c2c1[C@H](O)C(F)(F)C2` [Example 220, 5-[(3S)-7-[(1R,3S,4R)-8-cyano-3,4,6-trifluoro-1,2,3,4-tetrahydronaphthalen-1-yl]-2,2-difluoro-3-hydroxy-2,3-dihydro-1H-inden-4-yl]-4-methylpyrimidine-2-carbonitrile] showed a negative logarithm of the IC50 (pIC50) above 7.00. Compound `Cc1c(-c2c(F)cc([C@H]3C[C@H](F)[C@H](F)c4cc(F)cc(C#N)c43)c3c2[C@H](O)C(F)(F)C3)cnn1C` [Example 209, (5R,6S)-8-[(1S)-7-(1,5-dimethyl-1H-pyrazol-4-yl)-2,2,6-trifluoro-1-hydroxy-2,3-dihydro-1H-inden-4-yl]-3,5,6-trifluoro-5,6,7,8-tetrahydronaphthalene-1-carbonitrile] had a negative-log IC50 (pIC50) above 7.00. `Cc1nc(N)sc1-c1ccc([C@H]2CC[C@H](F)c3cc(F)cc(C#N)c32)c2c1[C@H](O)C(F)(F)C2` [Example 188, (5S,8R)-8-[(1S)-7-(2-amino-4-methyl-1,3-thiazol-5-yl)-2,2-difluoro-1-hydroxy-1,3-dihydroinden-4-yl]-3,5-difluoro-5,6,7,8-tetrahydronaphthalene-1-carbonitrile] showed a pIC50 of 6.00 to 7.00. Compound `Cc1ncc(-c2ccc([C@H]3C[C@H](F)[C@H](F)c4cc(F)cc(C#N)c43)c3c2[C@H](O)C(F)(F)C3)c(N)n1` [Example 221, (5R,6S,8R)-8-[(1S)-7-(4-amino-2-methylpyrimidin-5-yl)-2,2-difluoro-1-hydroxy-2,3-dihydro-1H-inden-4-yl]-3,5,6-trifluoro-5,6,7,8-tetrahydronaphthalene-1-carbonitrile] showed a pIC50 above 7.00.

As usually defined, the pIC50 is −log10 of the IC50, conventionally taken in molar units. A higher pIC50 goes with a small IC50.
